One may read the IC50 as the concentration that gives 50% inhibition.

This note sets out measurements from patent publication US10189854B2, “Substituted pyrimidine compounds” (Grünenthal GmbH, priority 2014, dated 2019).

The target of the assay is human PDE4B1 (Homo sapiens (Human), UniProt Q07343). As to the kind of experiment: cAMP HTRF assay to determine the activity of hPDE4B1. The class given is biochemical. To be noted: IC50 inhibition of PDE4B; human recombinant PDE4B1, cAMP HTRF assay. A digest of the protocol:
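Recombinant human PDE4B1 expressed in Sf9 cells (4.8 U) was incubated with 40 nM cAMP for 30 min at room temperature in Tris buffer, pH 7.8, with MgCl2, DTT and Tween 20. HTRF detection of remaining cAMP followed, with 1 mM IBMX stop, read 60 min later as the 665/620 nm ratio. Results are % inhibition versus control.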

Sequence of human PDE4B1 (Q07343 whole entry): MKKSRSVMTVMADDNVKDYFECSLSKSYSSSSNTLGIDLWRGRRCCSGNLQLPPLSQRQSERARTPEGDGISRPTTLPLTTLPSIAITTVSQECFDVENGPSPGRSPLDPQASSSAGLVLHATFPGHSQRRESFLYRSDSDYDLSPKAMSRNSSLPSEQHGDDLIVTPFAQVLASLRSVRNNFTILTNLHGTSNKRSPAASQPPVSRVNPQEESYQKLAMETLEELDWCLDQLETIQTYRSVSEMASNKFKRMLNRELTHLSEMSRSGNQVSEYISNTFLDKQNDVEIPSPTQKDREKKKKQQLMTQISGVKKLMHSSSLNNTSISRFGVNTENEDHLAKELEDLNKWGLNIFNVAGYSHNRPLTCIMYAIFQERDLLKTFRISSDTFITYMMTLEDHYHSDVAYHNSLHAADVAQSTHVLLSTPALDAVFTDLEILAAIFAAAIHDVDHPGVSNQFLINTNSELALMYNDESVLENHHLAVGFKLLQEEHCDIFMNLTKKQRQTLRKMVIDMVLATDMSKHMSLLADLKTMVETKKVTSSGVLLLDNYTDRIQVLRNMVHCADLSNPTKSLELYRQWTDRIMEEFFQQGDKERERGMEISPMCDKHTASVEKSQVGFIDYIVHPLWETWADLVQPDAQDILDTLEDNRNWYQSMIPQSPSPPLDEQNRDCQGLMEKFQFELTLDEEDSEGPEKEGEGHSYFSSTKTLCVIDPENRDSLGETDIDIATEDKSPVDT

For `COc1ccc(F)c(-c2cnc(N3CC4(CC4)c4ccc(C(=O)N5CCNCC5)cc43)nc2)c1` [Compound 73, [1-[5-(2-Fluoro-5-methoxy-phenyl)-pyrimidin-2-yl]-spiro[1,2-dihydro-indole-3,1′-cyclopropane]-6-yl]-piperazin-1-yl-methanone], the IC50 is below 0.1 µM. Next, `O=C(c1ccc2c(c1)N(c1ncc(-c3c(F)cccc3C(F)(F)F)cn1)CC21CC1)N1CCOCC1` [Compound 24, [1-[5-[2-Fluoro-6-(trifluoromethyl)-phenyl]-pyrimidin-2-yl]-spiro[1,2-dihydro-indole-3,1′-cyclopropane]-6-yl]-morpholin-4-yl-methanone]: 1 to 10 µM; `CS(=O)(=O)c1ccc(F)c(-c2cnc(N3CC4(CC4)c4ccc(C(=O)N5CCOCC5)cc43)nc2)c1` [Compound 42, [1-[5-(2-Fluoro-5-methylsulfonyl-phenyl)-pyrimidin-2-yl]-spiro[1,2-dihydro-indole-3,1′-cyclopropane]-6-yl]-morpholin-4-yl-methanone]: below 0.1 µM; `O=C(c1ccc2c(c1)N(c1ncc(-c3ccccc3C(F)F)cn1)CC21CC1)N1CCOCC1` [Compound 39, [1-[5-[2-(Difluoro-methyl)-phenyl]-pyrimidin-2-yl]spiro[1,2-dihydro-indole-3,1′-cyclopropane]-6-yl]-morpholin-4-yl-methanone]: 0.1 to 1 µM. The result for `Cc1ccnc(-c2cnc(N3CC4(CC4)c4ccc(C(=O)N(C)CCO)cc43)nc2)c1` [Compound 210, N-(2-Hydroxy-ethyl)-N-methyl-1-[5-(4-methyl-pyridin-2-yl)-pyrimidin-2-yl]-spiro[1,2-dihydro-indole-3,1′-cyclopropane]-6-carboxylic acid amide] reads below 0.1 µM; that for `O=C(c1ccc2c(c1)N(c1ncc(-c3ccccc3F)cn1)CC21CC1)N1CCS(=O)(=O)CC1` [Compound 106, (1,1-Dioxo-[1,4]thiazinan-4-yl)-[1-[5-(2-fluorophenyl)-pyrimidin-2-yl]-spiro[1,2-dihydro-indole-3,1′-cyclopropane]-6-yl]-methanone], 0.1 to 1 µM. Regarding `NC(=O)C1CCN(C(=O)c2ccc3c(c2)N(c2ncc(-c4ccccc4F)cn2)CC32CC2)CC1` [Compound 216, 1-[1-[5-(2-Fluorophenyl)-pyrimidin-2-yl]-spiro[1,2-dihydro-indole-3,1′-cyclopropane]-6-carbonyl]-piperidine-4-carboxylic acid amide], the IC50 was in the range of 1 to 10 µM.

“[1-[5-(6-Chloro-pyrimidin-4-yl)-pyrimidin-2-yl]-spiro[1,2-dihydro-indole-3,1′-cyclopropane]-6-yl]-morpholin-4-yl-methanone [Compound 206]”: the IC50 is below 0.1 µM. The result for `O=C(c1ccc2c(c1)N(c1ncc(-c3ccc(F)cc3F)cn1)CC21CC1)N1CCOCC1` [Compound 8, [1-[5-(2,4-Difluoro-phenyl)-pyrimidin-2-yl]-spiro[1,2-dihydro-indole-3,1′-cyclopropane]-6-yl]-morpholin-4-yl-methanone] reads below 0.1 µM; that for `O=C(c1ccc2c(c1)N(c1ncc(-c3ccnc(F)c3)cn1)CC21CC1)N1CCOCC1` [Compound 160, [1-[5-(2-Fluoro-pyridin-4-yl)-pyrimidin-2-yl]-spiro[1,2-dihydro-indole-3,1′-cyclopropane]-6-yl]-morpholin-4-yl-methanone], below 0.1 µM. Regarding “[1-[5-(4-Fluoro-pyridin-2-yl)-pyrimidin-2-yl]-spiro[1,2-dihydro-indole-3,1′-cyclopropane]-6-yl]-morpholin-4-yl-methanone [Compound 187]”, the IC50 was below 0.1 µM. The result for `Cc1ccc(F)c(-c2cnc(N3CC4(CC4)c4ccc(C(=O)N5CCOCC5)cc43)nc2)c1` [Compound 52, [1-[5-(2-Fluoro-5-methyl-phenyl)-pyrimidin-2-yl]-spiro[1,2-dihydro-indole-3,1′-cyclopropane]-6-yl]-morpholin-4-yl-methanone] reads below 0.1 µM. Next, `CCN(C)C(=O)c1ccc2c(c1)N(c1ncc(-c3ccccc3F)cn1)CC21CC1` [Compound 90, N-Ethyl-1-[5-(2-fluorophenyl)-pyrimidin-2-yl]-N-methyl-spiro[1,2-dihydro-indole-3,1′-cyclopropane]-6-carboxylic acid amide]: 0.1 to 1 µM; “4-[1-[5-(3-Methoxyphenyl)-pyrimidin-2-yl]-spiro[1,2-dihydro-indole-3,1′-cyclopropane]-6-carbonyl]-piperazin-2-one [Compound 189]”: below 0.1 µM. The result for `O=C(c1ccc2c(c1)N(c1ncc(-c3ccccc3)cn1)CC21CC1)N1CCCC1` [Compound 59, [1-(5-Phenyl-pyrimidin-2-yl)-spiro[1,2-dihydro-indole-3,1′-cyclopropane]-6-yl]-pyrrolidin-1-yl-methanone] reads below 0.1 µM; that for `O=C(c1ccc2c(c1)N(c1ncc(-c3ccccn3)cn1)CC21CC1)N1CCCC1` [Compound 175, [1-(5-Pyridin-2-yl-pyrimidin-2-yl)-spiro[1,2-dihydro-indole-3,1′-cyclopropane]-6-yl]-pyrrolidin-1-yl-methanone], below 0.1 µM; that for `Cc1cc(-c2cnc(N3CC4(CC4)c4ccc(C(=O)N5CCOCC5)cc43)nc2)sn1` [Compound 155, [1-[5-(3-Methyl-isothiazol-5-yl)-pyrimidin-2-yl]-spiro[1,2-dihydro-indole-3,1′-cyclopropane]-6-yl]-morpholin-4-yl-methanone], below 0.1 µM. As for `Cn1cc(-c2cnc(N3CC4(CC4)c4ccc(C(=O)N5CC[C@@H](N)C5)cc43)nc2)cn1` [Compound 173, [(3R)-3-Amino-pyrrolidin-1-yl]-[1-[5-(1-methyl-1H-pyrazol-4-yl)-pyrimidin-2-yl]-spiro[1,2-dihydro-indole-3,1′-cyclopropane]-6-yl]-methanone], the IC50 was below 0.1 µM. The result for `CN(C)C(=O)c1ccc2c(c1)N(c1ncc(-c3ccccc3)cn1)CC21CC1` [Compound 124, N,N-Dimethyl-1-(5-phenyl-pyrimidin-2-yl)-spiro[1,2-dihydro-indole-3,1′-cyclopropane]-6-carboxylic acid amide] reads below 0.1 µM; that for `NC(=O)c1ccc(-c2cnc(N3CC4(CC4)c4ccc(C(=O)N5CCOCC5)cc43)nc2)o1` [Compound 156, 5-[2-[6-(Morpholine-4-carbonyl)-spiro[1,2-dihydro-indole-3,1′-cyclopropane]-1-yl]-pyrimidin-5-yl]-furan-2-carboxylic acid amide], below 0.1 µM; that for `CC1(C)CN(c2ncc(-c3ccccc3F)cn2)c2cc(C(=O)N3CCOCC3)ccc21` [Compound 9, [1-[5-(2-Fluorophenyl)-pyrimidin-2-yl]-3,3-dimethyl-1,2-dihydro-indol-6-yl]-morpholin-4-yl-methanone], 0.1 to 1 µM.

On to `O=C(c1ccc2c(c1)N(c1ncc(-c3ccccc3)cn1)CC21CC1)N1CCNCC1` [Compound 49, [1-(5-Phenyl-pyrimidin-2-yl)-spiro[1,2-dihydro-indole-3,1′-cyclopropane]-6-yl]-piperazin-1-yl-methanone], for which the IC50 was below 0.1 µM. The result for `O=C(c1ccc2c(c1)N(c1ncc(-c3cccc(F)n3)cn1)CC21CC1)N1CCOCC1` [Compound 151, [1-[5-(6-Fluoro-pyridin-2-yl)-pyrimidin-2-yl]-spiro[1,2-dihydro-indole-3,1′-cyclopropane]-6-yl]-morpholin-4-yl-methanone] reads below 0.1 µM; that for `CN(Cc1ccco1)C(=O)c1ccc2c(c1)N(c1ncc(-c3ccccc3F)cn1)CC21CC1` [Compound 91, 1-[5-(2-Fluorophenyl)-pyrimidin-2-yl]-N-(furan-2-yl-methyl)-N-methyl-spiro[1,2-dihydro-indole-3,1′-cyclopropane]-6-carboxylic acid amide], 0.1 to 1 µM; that for `CS(=O)(=O)c1ccccc1-c1cnc(N2CC3(CC3)c3ccc(C(=O)N4CCOCC4)cc32)nc1` [Compound 28, [1-[5-(2-Methylsulfonyl-phenyl)-pyrimidin-2-yl]-spiro[1,2-dihydro-indole-3,1′-cyclopropane]-6-yl]-morpholin-4-yl-methanone], 0.1 to 1 µM.

`CN(C(=O)c1ccc2c(c1)N(c1ncc(-c3ccccc3F)cn1)CC21CC1)C1CCOCC1` [Compound 102, 1-[5-(2-Fluorophenyl)-pyrimidin-2-yl]-N-methyl-N-tetrahydro-pyran-4-yl-spiro[1,2-dihydro-indole-3,1′-cyclopropane]-6-carboxylic acid amide]: the half-maximal inhibitory concentration (IC50) fell in the range of 0.1 to 1 µM. The result for “4-[1-[5-(3-Fluorophenyl)-pyrimidin-2-yl]-spiro[1,2-dihydro-indole-3,1′-cyclopropane]-6-carbonyl]-piperazin-2-one [Compound 188]” reads below 0.1 µM. Next, `CN(C)C(=O)c1ccc2c(c1)N(c1ncc(-c3cccc(F)c3)cn1)CC21CC1` [Compound 125, 1-[5-(3-Fluorophenyl)-pyrimidin-2-yl]-N,N-dimethyl-spiro[1,2-dihydro-indole-3,1′-cyclopropane]-6-carboxylic acid amide]: below 0.1 µM. The result for `N#Cc1ccccc1-c1cnc(N2CC3(CC3)c3ccc(C(=O)N4CCOCC4)cc32)nc1` [Compound 18, 2-[2-[6-(Morpholine-4-carbonyl)-spiro[1,2-dihydro-indole-3,1′-cyclopropane]-1-yl]-pyrimidin-5-yl]-benzonitrile] reads 0.1 to 1 µM.

Turning to `O=C(c1ccc2c(c1)N(c1ncc(-c3ccsc3Cl)cn1)CC21CC1)N1CCOCC1` [Compound 132, [1-[5-(2-Chloro-thiophen-3-yl)-pyrimidin-2-yl]-spiro[1,2-dihydro-indole-3,1′-cyclopropane]-6-yl]-morpholin-4-yl-methanone], the 50% inhibitory concentration (IC50) was below 0.1 µM. The result for `O=C(c1ccc2c(c1)N(c1ncc(-c3ccccc3F)cn1)CC21CC1)N1CC2(CCNC2)C1` [Compound 111] reads 1 to 10 µM.
